{"source": "patent US9657351B2", "about": "“MRNA-based gene expression for personalizing patient cancer therapy with an MDM2 antagonist” (Hoffmann-La Roche Inc., priority 2013, dated 2017)", "key": {"BBC3 mRNA": {"test_system": "BBC3 mRNA", "assay": "NO21279 blood cell gene expression on treatment, Affymetrix U133 Plus 2.0 microarray", "format": "in vivo, human", "conditions": "blood cell specimens, C1D10; IQR 1.13-1.99", "description": "(§1) MDM2 mRNA concentrations were assessed at Roche Molecular Systems by quantitative real-time PCR with 50 ng total RNA from MACs isolated leukemia cells from blood. TaqMan (Invitrogen, Carlsbad, Calif., USA) probes were designed to detect MDM2 mRNA and the reference mRNA, beta-glucuronidase, simultaneously using two different fluorescent reporters. Gene expression profiles were generated using Affymetrix U133 Plus 2.0 microarrays. Probset ID's for the each of the four genes on said U133 Plus 2.0 microarray are: 209375_s_at (for XPC); 205386_s_at and 211832_s_at (MDM2); 211692_s_at (BBC3); 207039_at and 211156_at (CDKN2A). The “mRNA expression level” for one of the 4 genes according to the present invention is the accumulation of all counts falling into the range of exons of a gene (e.g. MDM2). […] The predictive patient signature score according to the present invention is then calculated using the following equation: patient signature score=GMDM2+GXPC+GBBC3−GCDKN2A. G in the formula stands for log 2 transformed mRNA expression levels as obtained from patient samples, for example blood leukemia or bone marrow biopsy samples. For example, for the patient data reported in Table 9 (Example 5), G is log 2 of the mRNA probeset expression of the relevant gene as measured with Affymetrix U133 Plus 2.0 microarrays.\n(§2) Each intensity value is then log 2 transformed."}, "CDKN2A mRNA": {"test_system": "CDKN2A mRNA", "assay": "NO21279 blood cell gene expression on treatment, Affymetrix U133 Plus 2.0 microarray", "format": "in vivo, human", "conditions": "C1D10; IQR 0.09-0.38", "description": "as §1, §2"}, "MDM2 mRNA [1]": {"test_system": "MDM2 mRNA", "assay": "NO21279 blood cell gene expression on treatment, Affymetrix U133 Plus 2.0 microarray", "format": "in vivo, human", "conditions": "blood cell specimens, C1D10; IQR 1.71-5.00", "description": "as §1, §2"}, "P21": {"test_system": "P21", "assay": "NP21280 solid tumor trial, tumor biopsy biomarker (p21 IHC)", "format": "in vivo, human", "conditions": "p=2.32×10−3", "description": "The predictive mRNA signature is also evaluated in two solid tumor trials (FIG. 1). […] In both clinical trials, a biomarker package that enabled assessment of p53 pathway activation is assessed (p53 IHC, p21 IHC, MDM2 mRNA, and Ki67), MDM2 inhibition activates the P53 pathway and decreases cell proliferation."}, "DU145": {"test_system": "DU145", "assay": "COMPOUND A In Vitro Assay", "format": "cell-based, human", "description": "(§3) To generate an MDM2 antagonist therapy predictive signature, the response of MDM2 antagonist therapy in vitro with gene expression profiling (FIG. 1) is combined. A bank of 287 human cancer cell lines, collectively termed the Cell Lines for Oncology/Chugai ACcumulative Tumour EncycLopedia (CELLO/CACTEL), representing a broad array of diverse human cancer tumor types are subject to evaluation using several high-throughput genomic technology platforms. The mutational status of nucleic acids from each cell line is determined by exome sequencing. Messenger RNA (mRNA) expression levels at baseline, prior to MDM2 antagonist therapy, are obtained via RNA sequencing. MDM2 antagonist therapy COMPOUND A, sometimes referred to herein as RG7112, responses are obtained by assays known to those skilled in the art such as RNA sequencing and microarray measurement using Gene Chip Human Genome U133 Plus 2.0 Array. The MDM2 therapy responses are obtained by high throughout screening assays. Depending on their responses to COMPOUND A these cell lines are classified as either sensitive, defined as IC50<=1, or resistant, defined as IC50>=10.\n(§4) 281 cells are treated with MDM2 antagonists and the IC50 (therapy response) is generated. The cell lines span a broad range of tumor cell types of derivation."}, "KMS-26": {"test_system": "KMS-26", "assay": "COMPOUND A In Vitro Assay", "format": "cell-based, human", "conditions": "for IC50: Homo sapiens", "description": "as §3, §4"}, "NCI-H226": {"test_system": "NCI-H226", "assay": "COMPOUND A In Vitro Assay", "format": "cell-based, human", "conditions": "for IC50: Homo sapiens", "description": "as §3, §4"}, "NCI-H2122": {"test_system": "NCI-H2122", "assay": "COMPOUND A In Vitro Assay", "format": "cell-based, human", "conditions": "for IC50: Homo sapiens", "description": "as §3, §4"}, "LCLC-103H": {"test_system": "LCLC-103H", "assay": "COMPOUND A In Vitro Assay", "format": "cell-based, human", "description": "as §3, §4"}, "MKN-45": {"test_system": "MKN-45", "assay": "COMPOUND A In Vitro Assay", "format": "cell-based, human", "conditions": "for IC50: Homo sapiens", "description": "as §3, §4"}, "SW1463": {"test_system": "SW1463", "assay": "COMPOUND A In Vitro Assay", "format": "cell-based, human", "description": "as §3, §4"}, "MDM2 mRNA [2]": {"test_system": "MDM2 mRNA", "conditions": "NP22890; at C1D8; as previously reported; cited from earlier work"}, "clinical": {"assay": "clinical", "conditions": "both, human, in vivo, AUC0-24, median"}, "HCC1143": {"test_system": "HCC1143", "assay": "COMPOUND A In Vitro Assay", "format": "cell-based", "conditions": "Homo sapiens, Breast, mammary gland, TP53 Mutant", "in_short": "(§5)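 MDM2 antagonist RG7112 was tested on a broad human tumour cell line collection in a high-throughput screen. Reported values are IC50s.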"}, "KG-1": {"test_system": "KG-1", "assay": "COMPOUND A In Vitro Assay", "format": "cell-based", "conditions": "Homo sapiens, Bone marrow, TP53 Mutant", "in_short": "as §5"}, "HCC38": {"test_system": "HCC38", "assay": "COMPOUND A In Vitro Assay", "format": "cell-based", "conditions": "Homo sapiens, Breast, mammary gland, TP53 Mutant", "in_short": "as §5"}, "A-431": {"test_system": "A-431", "assay": "COMPOUND A In Vitro Assay", "format": "cell-based", "conditions": "Homo sapiens, Skin, epidermis, TP53 Mutant", "in_short": "as §5"}, "QG-56": {"test_system": "QG-56", "assay": "COMPOUND A In Vitro Assay", "format": "cell-based", "conditions": "Homo sapiens, Lung, TP53 Mutant", "in_short": "as §5"}, "MCF7": {"test_system": "MCF7", "assay": "COMPOUND A In Vitro Assay", "format": "cell-based", "conditions": "Homo sapiens", "in_short": "as §5"}, "LS1034": {"test_system": "LS1034", "assay": "COMPOUND A In Vitro Assay", "format": "cell-based", "conditions": "Homo sapiens, LS-1034, Intestine, large, caecum, TP53 Mutant", "in_short": "as §5"}, "10C9": {"test_system": "10C9", "assay": "COMPOUND A In Vitro Assay", "format": "cell-based", "conditions": "Homo sapiens", "in_short": "as §5"}, "HARA-B": {"test_system": "HARA-B", "assay": "COMPOUND A In Vitro Assay", "format": "cell-based", "conditions": "Homo sapiens, Lung, TP53 Mutant", "in_short": "as §5"}}, "data": [{"smiles": "CCOc1cc(C(C)(C)C)ccc1C1=N[C@@](C)(c2ccc(Cl)cc2)[C@@](C)(c2ccc(Cl)cc2)N1C(=O)N1CCN(CCCS(C)(=O)=O)CC1", "note": "[COMPOUND A]", "values": [{"measurement": "median BBC3 mRNA expression over baseline", "setting": "BBC3 mRNA", "result": 1.45, "unit": "times"}, {"measurement": "median CDKN2A mRNA expression decreased over baseline", "setting": "CDKN2A mRNA", "result": 0.26, "unit": "times"}, {"measurement": "median MDM2 mRNA expression over baseline", "setting": "MDM2 mRNA [1]", "result": 2.37, "unit": "times"}, {"measurement": "P21 concentration change from baseline", "setting": "P21", "result": "significantly increase"}, {"measurement": "IC50", "setting": "DU145; Homo sapiens, DU-145, Prostate, TP53 Mutant", "result": 1000, "unit": "nM"}, {"measurement": "response to COMPOUND A (sensitive / resistant)", "setting": "DU145; TP53 mutant cell line", "result": "sensitive (sensitive, defined as IC50<=1)"}, {"measurement": "IC50", "setting": "KMS-26; KMS-26, KMS-26, Lymphocyte, TP53 Mutant", "result": 450, "unit": "nM"}, {"measurement": "IC50", "setting": "KMS-26; KMS-26, KMS-26 cells", "result": 500, "unit": "nM"}, {"measurement": "response to COMPOUND A (sensitive / resistant)", "setting": "KMS-26; KMS-26, TP53 mutant cell line", "result": "sensitive (sensitive, defined as IC50<=1)"}, {"measurement": "IC50", "setting": "NCI-H226; NCI-H226, NCI-H226, Lung, TP53 Mutant", "result": 130, "unit": "nM"}, {"measurement": "IC50", "setting": "NCI-H226; NCI-H226, NCI-H226 cells", "result": 100, "unit": "nM"}, {"measurement": "response to COMPOUND A (sensitive / resistant)", "setting": "NCI-H226; NCI-H226, TP53 mutant cell line", "result": "sensitive (sensitive, defined as IC50<=1)"}, {"measurement": "IC50", "setting": "NCI-H2122; NCI-H2122, NCI-H2122, Lung, TP53 Mutant", "result": 160, "unit": "nM"}, {"measurement": "IC50", "setting": "NCI-H2122; NCI-H2122, NCI-H2122 cells", "result": 200, "unit": "nM"}, {"measurement": "response to COMPOUND A (sensitive / resistant)", "setting": "NCI-H2122; NCI-H2122, TP53 mutant cell line", "result": "sensitive (sensitive, defined as IC50<=1)"}, {"measurement": "IC50", "setting": "LCLC-103H; Homo sapiens, Lung, TP53 Mutant", "result": 700, "unit": "nM"}, {"measurement": "response to COMPOUND A (sensitive / resistant)", "setting": "LCLC-103H; TP53 mutant cell line", "result": "sensitive (sensitive, defined as IC50<=1)"}, {"measurement": "IC50", "setting": "MKN-45; MKN-45, MKN-45, Stomach, TP53 Mutant", "result": 180, "unit": "nM"}, {"measurement": "IC50", "setting": "MKN-45; MKN-45, MKN-45 cells", "result": 200, "unit": "nM"}, {"measurement": "response to COMPOUND A (sensitive / resistant)", "setting": "MKN-45; MKN-45, TP53 mutant cell line", "result": "sensitive (sensitive, defined as IC50<=1)"}, {"measurement": "IC50", "setting": "SW1463; Homo sapiens, Intestine, large, rectum, TP53 Mutant", "result": 1000, "unit": "nM"}, {"measurement": "response to COMPOUND A (sensitive / resistant)", "setting": "SW1463; TP53 mutant cell line", "result": "sensitive (sensitive, defined as IC50<=1)"}, {"measurement": "MDM2 mRNA expression change from baseline", "setting": "MDM2 mRNA [2]", "result": "significantly increase"}, {"measurement": "AUC(0-t)", "setting": "clinical", "result": 190, "unit": "µg·h/mL"}, {"measurement": "IC50", "setting": "HCC1143", "result": 12000, "unit": "nM"}, {"measurement": "IC50", "setting": "KG-1", "result": 15000, "unit": "nM"}, {"measurement": "IC50", "setting": "HCC38", "result": 12000, "unit": "nM"}, {"measurement": "IC50", "setting": "A-431", "result": 9500, "unit": "nM"}, {"measurement": "IC50", "setting": "QG-56", "result": 10000, "unit": "nM"}, {"measurement": "IC50", "setting": "MCF7; MCF7, MCF7, Breast, mammary gland, TP53 Wild type", "result": 750, "unit": "nM"}, {"measurement": "IC50", "setting": "MCF7; MCF7, MCF7 cells", "result": 800, "unit": "nM"}, {"measurement": "IC50", "setting": "LS1034", "result": 5700, "unit": "nM"}, {"measurement": "IC50", "setting": "10C9; 10C9, Lymphocyte B, TP53 Mutant", "result": 19000, "unit": "nM"}, {"measurement": "IC50", "setting": "10C9; 10C9 cells", "result": 19000, "unit": "nM"}, {"measurement": "IC50", "setting": "HARA-B", "result": 10000, "unit": "nM"}]}]}
